IC50 data for 16 molecules are collected here from patent publication US20160046618A1, “Cyclopropyl Fused Thiazin-2-Amine Compounds as Beta-Secretase Inhibitors and Methods of Use” (AMGEN INC., priority 2014, published 2016).

The structures appear in SMILES notation. Where two headings read alike, the source gives them in different places.

Assay [1] concerns Aβ40 in conditioned medium of cells stably expressing Amyloid Precursor Protein (APP). Nature of the assay: In vitro BACE-1 cell-based assay (Aβ40 sandwich ELISA). The following applies: read-out: IC50 IP (μM) BACE1 cell. In a few lines:
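APP-stable cells, pre-cultured 24 h at 37° C in DMEM/10% FBS, were treated 24 h with compound in a 10-point series starting at 100 μM or 10 μM (0.1% DMSO final). Secreted Aβ40 in conditioned medium was measured by pAb40/biotin-6E10 sandwich ELISA with Europium time-resolved fluorescence; IC50 from percent inhibition versus concentration.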
Background: ELISA stands for enzyme-linked immunosorbent assay.

In the next assay the target is Recombinant Cat D (Homo sapiens (Human), UniProt P07339). Kind of assay: In vitro enzymatic Cathepsin D (Cat D) FRET assay. It counts as biochemical. The note with it: read-out: IC50 IP (μM) CatD. The essentials:
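Fluorescence at 500 nm excitation and 580 nm emission reports cleavage of a quenched fluorophore–quencher peptide (20 nM) by CHO-expressed Cat D. Reactions ran one hour in 0.05 M citrate pH 3.5, 5 mM CHAPS, 10% DMSO final before a Tris stop raised pH to neutrality.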

The target of a further assay is human recombinant BACE1 (Homo sapiens (Human), UniProt P56817). Kind of assay: In vitro enzymatic BACE1 FRET assay. It counts as biochemical. The note with it: read-out: IC50 IP (μM) BACE1 enzyme. In a few lines:
(§1)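 FRET cleavage assay using Ni-NTA-purified recombinant protease and 50 nM quenched peptide substrate, 1 h. Stopped by neutralising with Tris; fluorescence at 488/590 nm.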

Another assay has as its target human recombinant BACE2 (Homo sapiens (Human), UniProt Q9Y5Z0). Kind of assay: In vitro enzymatic BACE2 FRET assay. The format is biochemical. The following applies: read-out: IC50 IP (μM) BACE2 enzyme. In a few lines: as §1

Chain of human recombinant BACE1 (P56817 46-501): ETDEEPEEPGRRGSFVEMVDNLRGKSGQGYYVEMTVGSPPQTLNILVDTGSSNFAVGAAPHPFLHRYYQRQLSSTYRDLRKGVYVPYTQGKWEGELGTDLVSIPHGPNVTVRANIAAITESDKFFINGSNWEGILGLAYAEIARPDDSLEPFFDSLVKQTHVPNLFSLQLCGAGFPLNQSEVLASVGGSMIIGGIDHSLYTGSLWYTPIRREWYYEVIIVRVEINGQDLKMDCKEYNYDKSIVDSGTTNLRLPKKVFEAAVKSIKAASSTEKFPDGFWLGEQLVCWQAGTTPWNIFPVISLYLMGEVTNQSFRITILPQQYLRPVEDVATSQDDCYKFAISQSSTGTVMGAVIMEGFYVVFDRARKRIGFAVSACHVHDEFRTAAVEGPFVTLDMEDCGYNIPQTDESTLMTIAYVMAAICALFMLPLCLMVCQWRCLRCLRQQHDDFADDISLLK
Chain of human recombinant BACE2 (Q9Y5Z0 63-518): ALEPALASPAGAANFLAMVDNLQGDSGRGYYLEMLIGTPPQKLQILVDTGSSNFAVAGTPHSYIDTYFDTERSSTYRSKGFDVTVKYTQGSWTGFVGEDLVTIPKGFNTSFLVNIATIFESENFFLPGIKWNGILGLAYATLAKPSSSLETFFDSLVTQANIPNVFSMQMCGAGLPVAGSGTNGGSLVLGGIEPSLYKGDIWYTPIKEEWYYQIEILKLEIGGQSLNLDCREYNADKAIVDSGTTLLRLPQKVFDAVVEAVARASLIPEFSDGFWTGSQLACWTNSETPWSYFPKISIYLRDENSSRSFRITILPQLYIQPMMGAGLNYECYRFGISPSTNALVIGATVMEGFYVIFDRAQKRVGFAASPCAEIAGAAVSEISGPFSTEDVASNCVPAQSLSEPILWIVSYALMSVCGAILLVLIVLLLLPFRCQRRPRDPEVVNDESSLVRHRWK
Chain of Recombinant Cat D (P07339 65-412): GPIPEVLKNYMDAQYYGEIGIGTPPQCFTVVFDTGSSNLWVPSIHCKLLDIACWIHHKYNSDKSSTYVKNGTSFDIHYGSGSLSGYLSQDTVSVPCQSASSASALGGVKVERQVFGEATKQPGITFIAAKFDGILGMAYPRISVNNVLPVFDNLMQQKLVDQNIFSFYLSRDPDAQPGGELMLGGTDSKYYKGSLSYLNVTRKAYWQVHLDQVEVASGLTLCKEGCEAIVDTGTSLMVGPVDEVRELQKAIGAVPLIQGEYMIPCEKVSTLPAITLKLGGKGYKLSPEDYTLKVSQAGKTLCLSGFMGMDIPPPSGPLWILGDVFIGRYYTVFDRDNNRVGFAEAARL

One may read the IC50 as the point on the concentration scale where inhibition reaches its midpoint. For `NC1=N[C@](CF)(c2cc(NC(=O)c3ccc(Cl)cn3)ccc2F)[C@@H]2C[C@]2(/C=C/C(=O)N2CCOCC2)S1` [Example 764, N-(3-((1R,5S,6S)-3-amino-5-(fluoromethyl)-1-((E)-3-morpholino-3-oxoprop-1-en-1-yl)-2-thia-4-azabicyclo[4.1.0]hept-3-en-5-yl)-4-fluorophenyl)-5-chloropicolinamide], the IC50 in assay [1] was 0.000856 µM; at Recombinant Cat D, 518 µM; on human recombinant BACE1, 0.00073 µM; on human recombinant BACE2, less than 0.00203 µM.

In the case of `C#C[C@H](C)Oc1cnc(C(=O)Nc2ccc(F)c([C@@]3(C)N=C(N)S[C@@]4(COC)C[C@H]43)c2)c(C)c1` [Example 649, N-(3-((1S,5S,6S)-3-amino-1-(methoxymethyl)-5-methyl-2-thia-4-azabicyclo[4.1.0]hept-3-en-5-yl)-4-fluorophenyl)-3-methyl-5-(((1S)-1-methyl-2-propyn-1-yl)oxy)-2-pyridinecarboxamide], the IC50 worked out at 0.131 µM in assay [1], 803 µM at Recombinant Cat D, 0.0646 µM at human recombinant BACE1 and 0.284 µM at human recombinant BACE2.

For the molecule `C#CCOc1cnc2c(Nc3ccc(F)c([C@@]4(C)N=C(N)S[C@@]5(CF)C[C@H]54)c3)ncnc2c1` [Example 824, N-(3-((1S,5S,6S)-3-amino-1-(fluoromethyl)-5-methyl-2-thia-4-azabicyclo[4.1.0]hept-3-en-5-yl)-4-fluorophenyl)-7-(2-propyn-1-yloxy)pyrido[3,2-d]pyrimidin-4-amine], the half-inhibitory concentration (IC50) came out at 0.00128 µM in assay [1], 1840 µM at Recombinant Cat D, 0.00299 µM at human recombinant BACE1 and 0.0842 µM at human recombinant BACE2.

For `C#C[C@H](C)Oc1cnc(C(=O)Nc2ccc(F)c([C@@]3(C)N=C(N)S[C@@]4(C(=O)NC(C)(C)CF)C[C@H]43)c2)cn1` [Example 1019, (1S,5S,6S)-3-amino-5-(5-(5-((S)-but-3-yn-2-yloxy)pyrazine-2-carboxamido)-2-fluorophenyl)-N-(1-fluoro-2-methylpropan-2-yl)-5-methyl-2-thia-4-azabicyclo[4.1.0]hept-3-ene-1-carboxamide], the 50% inhibitory concentration (IC50) in assay [1] is 0.00109 µM; at Recombinant Cat D, 271 µM; at human recombinant BACE1 it was 0.000937 µM; at human recombinant BACE2 it was 0.073 µM.

For the molecule `C[C@]1(c2cc(Nc3ncnc4cc(OCc5ncco5)cnc34)cnc2F)N=C(N)S[C@@]2(CF)C[C@H]21` [Example 605, N-(5-((1S,5S,6S)-3-amino-1-(fluoromethyl)-5-methyl-2-thia-4-azabicyclo[4.1.0]hept-3-en-5-yl)-6-fluoro-3-pyridinyl)-7-(1,3-oxazol-2-ylmethoxy)pyrido[3,2-d]pyrimidin-4-amine], the IC50 in assay [1] came to 0.00149 µM; on Recombinant Cat D, 1290 µM; at human recombinant BACE1 it was 0.00178 µM; at human recombinant BACE2 it was 0.114 µM.

For `C[C@]1(c2cc(Nc3nccc4nc(OCc5ncco5)cnc34)ccc2F)N=C(N)S[C@@]2(C(F)F)C[C@@H]12` [Example 817, N-(3-((1S,5S,6S)-3-amino-1-(difluoromethyl)-5-methyl-2-thia-4-azabicyclo[4.1.0]hept-3-en-5-yl)-4-fluorophenyl)-2-(1,3-oxazol-2-ylmethoxy)pyrido[3,4-b]pyrazin-5-amine], the IC50 in assay [1] worked out at 0.00171 µM; on Recombinant Cat D, 124 µM; on human recombinant BACE1, 0.000706 µM; on human recombinant BACE2 it was 0.0319 µM.

As for `COc1cnc2c(Nc3cc(F)c(F)c([C@@]4(C)N=C(N)S[C@@]5(CO)C[C@H]54)c3)ncnc2c1` [Example 58, ((1S,5S,6S)-3-amino-5-(2,3-difluoro-5-((7-methoxypyrido[3,2-d]pyrimidin-4-yl)amino)phenyl)-5-methyl-2-thia-4-azabicyclo[4.1.0]hept-3-en-1-yl)methanol], the half-maximal inhibitory concentration (IC50) in assay [1] (BACE1 cell-based assay) was 0.00306 µM; at Recombinant Cat D (Cathepsin D FRET enzyme assay), 975 µM; on human recombinant BACE1 (BACE1 FRET enzyme assay), 0.00397 µM; on human recombinant BACE2 (BACE2 FRET enzyme assay) it was 0.0308 µM.

Take `C#CCOc1cnc2c(Nc3ccc(F)c([C@@]4(C)N=C(N)S[C@@]5(C(F)F)C[C@@H]45)c3)nccc2n1` [Example 816, N-(3-((1S,5S,6S)-3-amino-1-(difluoromethyl)-5-methyl-2-thia-4-azabicyclo[4.1.0]hept-3-en-5-yl)-4-fluorophenyl)-2-(2-propyn-1-yloxy)pyrido[3,4-b]pyrazin-5-amine]: the half-maximal inhibitory concentration (IC50) in assay [1] worked out at 0.00122 µM; at Recombinant Cat D, 73.6 µM; at human recombinant BACE1, 0.000244 µM; at human recombinant BACE2, 0.0183 µM.

For `C#CCOc1cnc2c(Nc3ccc(F)c([C@@]4(C)N=C(N)S[C@@]5(C(=O)NC)C[C@H]54)c3)nccc2n1` [Example 979, (1S,5S,6S)-3-amino-5-(2-fluoro-5-((2-(2-propyn-1-yloxy)pyrido[3,4-b]pyrazin-5-yl)amino)phenyl)-N,5-dimethyl-2-thia-4-azabicyclo[4.1.0]hept-3-ene-1-carboxamide], the half-maximal inhibitory concentration (IC50) in assay [1] was 0.000859 µM; at Recombinant Cat D, greater than 400 µM; on human recombinant BACE1, 0.000315 µM; on human recombinant BACE2, 0.0201 µM.

With `COC[C@]12C[C@H]1[C@@](C)(c1cc(NC(=O)c3cnc(OCc4ncco4)cn3)cc(C)c1F)N=C(N)S2` [Example 1071, N-(3-((1S,5S,6S)-3-amino-1-(methoxymethyl)-5-methyl-2-thia-4-azabicyclo[4.1.0]hept-3-en-5-yl)-4-fluoro-5-methylphenyl)-5-(oxazol-2-ylmethoxy)pyrazine-2-carboxamide], the half-inhibitory concentration (IC50) in assay [1] turned out to be 0.00025 µM; at Recombinant Cat D it was 1430 µM; at human recombinant BACE1, 0.000768 µM; on human recombinant BACE2 it was 0.0304 µM.

Take `COC[C@]12C[C@H]1[C@@](C)(c1cc(NC(=O)c3cnc(OCc4nnc(C)o4)cn3)cc(F)c1F)N=C(N)S2` [Example 1037, N-(3-((1S,5S,6S)-3-amino-1-(methoxymethyl)-5-methyl-2-thia-4-azabicyclo[4.1.0]hept-3-en-5-yl)-4,5-difluorophenyl)-5-((5-methyl-1,3,4-oxadiazol-2-yl)methoxy)-2-pyrazinecarboxamide]: the half-inhibitory concentration (IC50) was 0.0467 µM in assay [1], 785 µM on Recombinant Cat D, 0.000803 µM on human recombinant BACE1 and 0.128 µM on human recombinant BACE2.

`C#CCOc1cnc2c(Nc3ccc(F)c([C@@]4(C)N=C(N)S[C@@]5([C@H](O)C(F)(F)F)C[C@H]54)c3)nccc2n1` [Example 671, (1R)-1-((1S,5S,6S)-3-amino-5-(2-fluoro-5-((2-(2-propyn-1-yloxy)pyrido[3,4-b]pyrazin-5-yl)amino)phenyl)-5-methyl-2-thia-4-azabicyclo[4.1.0]hept-3-en-1-yl)-2,2,2,-trifluoroethanol]: the half-maximal inhibitory concentration (IC50) came to 0.00177 µM in assay [1], 1040 µM on Recombinant Cat D, 0.000943 µM on human recombinant BACE1 and 0.0236 µM at human recombinant BACE2.

Consider `CC#CCOc1cnc2c(Nc3cc(F)c(F)c([C@@]4(C)N=C(N)S[C@@]5(COC)C[C@H]54)c3)nccc2c1` [Example 903, N-(3-((1S,5S,6S)-3-amino-1-(methoxymethyl)-5-methyl-2-thia-4-azabicyclo[4.1.0]hept-3-en-5-yl)-4,5-difluorophenyl)-3-(2-butyn-1-yloxy)-1,7-naphthyridin-8-amine], for which the IC50 worked out at 0.00785 µM in assay [1], 1220 µM at Recombinant Cat D, 0.00195 µM on human recombinant BACE1 and 0.109 µM at human recombinant BACE2.

With `C#CCOc1cnc(C(=O)Nc2ccc(F)c([C@@]3(C)N=C(N)S[C@@]4([C@@H](O)C(F)(F)F)C[C@H]43)c2)cn1` [Example 674, N-(3-((1S,5S,6S)-3-amino-5-methyl-1-((1S)-2,2,2-trifluoro-1-hydroxyethyl)-2-thia-4-azabicyclo[4.1.0]hept-3-en-5-yl)-4-fluorophenyl)-5-(2-propyn-1-yloxy)-2-pyrazinecarboxamide], the IC50 in assay [1] was determined as 0.000776 µM; on Recombinant Cat D, 149 µM; at human recombinant BACE1, 0.000368 µM; on human recombinant BACE2, 0.0133 µM.

With `C#CCOc1cnc(C(=O)Nc2ccc(F)c([C@@]3(C)N=C(N)S[C@@]4(CF)C[C@H]43)c2)c(C)c1` [Example 690, N-(3-((1S,5S,6S)-3-amino-1-(fluoromethyl)-5-methyl-2-thia-4-azabicyclo[4.1.0]hept-3-en-5-yl)-4-fluorophenyl)-3-methyl-5-(2-propyn-1-yloxy)-2-pyridinecarboxamide], the IC50 in assay [1] is 0.00779 µM; at Recombinant Cat D, 675 µM; on human recombinant BACE1, 0.00418 µM; on human recombinant BACE2, 0.026 µM.

`C#CCOc1cnc2c(Nc3cc(F)c(F)c([C@@]4(C)N=C(N)S[C@@]5(S(C)(=O)=O)C[C@H]54)c3)nccc2n1` [Example 630, N-(3-((1R,5S,6S)-3-amino-5-methyl-1-(methylsulfonyl)-2-thia-4-azabicyclo[4.1.0]hept-3-en-5-yl)-4,5-difluorophenyl)-2-(2-propyn-1-yloxy)pyrido[3,4-b]pyrazin-5-amine]: the IC50 in assay [1] was determined as 0.00528 µM; on Recombinant Cat D, 74.9 µM; at human recombinant BACE1 it was 0.000443 µM; on human recombinant BACE2, 0.00547 µM.
